From US6020373A, “Chelate derivatives as protectors against tissue injury” (Eastern Virginia Medical School, priority 1997, dated 2000)
Entries after “also recorded” stand apart in the source; their conditions may differ.

Legend:
in vivo = settings: mouse, in vivo, ip
Protocol: (§1) For all biological studies, the substances were dissolved in water and brought to pH 7. […] Preliminary determination of the approximate toxicity level of the substances was by intraperitoneal (IP) injection of increasing doses into individual Swiss-Webster female mice until toxicity was evident. The maximum tolerated dose was the highest dose given without evident toxic symptoms such as coma, convulsions, or death. The LD 50 (IP) was determined by using at least three doses in 12 mice at each level, bracketing the approximate LD 50. The mice were followed for at least one week and examined for weight changes, general condition, and behavior. The LD 50 with lower and upper confidene iits was calculated from the data.

[1] = system: radiation damage of right hind leg; assay: Radioprotection in mice: radiation damage scores of the irradiated right hind leg; settings: for Av score (average radiation damage score, day 15-20): 6 mice per group; for effectiveness as radioprotectant: IP, mice, limb irradiation 30-40 Gy; for Av Score (average radiation damage score, day 12-24): 30 Gy to right limb, 12 mice per group, IP mmole/kg: IDA 16.7, EDTA 8.6, MPEG 17.9, MIDA 10.3, MPEDTA 7.7, saline 1.54
Protocol: The effect of PEG derivatives on tissue tolerance to radiation was tested. Groups of 6 or 12 female Swiss-Webster mice were given IP solutions of the derivatives at a dose of approxfimately one-half of the LD50. Ten minutes later, pentobarbital (PB) 0.262 mmole/kg was given IP, and twenty minutes after the first injection, the right hind leg only was irradiated with 30, 35 or 40 Gy using the Philips RT-250 unit operated under the following conditions: 200 kVp, 20 mA, 0.2 mm Cu added filtration, HVL 0.57 mm Cu, dose rate of 1.834 Gy/min. Mice were irradiated in groups of 6 or 12, and their legs were arranged within a 20×24 cm aperture cone at a 50 cm target-to-skin distance such that all their legs were within a 95% isodose. The output of the X-ray unit was calibrated using a Capintec PT-06C Farmer chamber. Controls received only PB and 0.4 ml normal saline in place of the drug.
The mice were examed daily by two independent observers for 24 days, and the limbs were scored for radiation damage graded on a scale of 0 to 3.5 according to criteria previously established (Fowler, et al., Int. J. Rad. Biol., 9:241-252, 1964). Briefly, a score of 1 corresponds to definite reddening of the foot compared to normal and a score of 2 is marked moist desquamation, loss of hair and skin, and sticking together of toes.

[2] = system: blood urea nitrogen levels (BUN); assay: Effect on renal toxicity of doxorubicin (blood urea nitrogen); settings: 27 days, FIG. 3; for prevention of doxorubicin-induced BUN increase: 7 mmole/kg IP one hour before 25 mg/kg doxorubicin into tail vein
[3] = system: tissue injury, such as myocardial ischemia-reperfusion injury; settings: in vivo; cited from earlier work
[4] = in vivo; cited from earlier work
Mice = assay: in vivo; settings: IP, mice; for LD50: 12 mice at each level, LL and UL confidence limits in own columns; for MTD (maximum tolerated dose): highest dose without evident toxic symptoms such as coma, convulsions, or death
Protocol: as §1

B16F1 malignant melanoma = assay: Effect on doxorubicin-caused tumor growth lag; assay type: in vivo, C57Bl/6 mice; settings: IP 30 minutes before doxorubicin 15 mg/kg IP; FIG. 4
Protocol: For this assay, the B16F1 malignant melanoma which grows in isologous C57Bl/6 mice was used. […] When the tumors reached an average of 6-8 mm diameter, they were placed in closely matched groups of 12 with similar average size tumors. The groups were injected intraperitoneally with either saline or MPEDTA, followed 30 minutes later by doxorubicin 15 mg/kg IP or saline. Tumor volumes were assessed by daily caliper measreients m two orthogonal planes. Tumor length is defined as the diameter in the plane parallel to the body, while width is defined as the diameter perpendicular to the body. Diameter product (in mm^2) was used as the index of tumor growth. The tumor areas were averaged and plotted vs. time to show growth delay as a function of the various treatments. When the average area reached […], the mice were killed by cervical dislocation. The results are in FIG. 4. The solid circles indicate the groups receiving saline-saline or MPEDTA-saline, the solid squares indicate the group receiving saline-doxorubicin, and the solid triangles indicate the group receiving MPEDTA-doxorubicin.

[5] = 40 Gy, IP mmole/kg: EDTAE, DTPA ester, MPDTE 1.0, MPEDTAE 2.0, MPEDTA 8.0, saline 2.93
[6] = 35 Gy, IP mmole/kg: EDTA, DTPA, MPEDTA, MPDTP 8.0, EDTAE 1.0, MPEDTAE, MPDTE 2.0, saline 2.36

Q: What does the source list for `COC(=O)CN(CCN(CC(=O)OC)CC(=O)OC)CCN(CC(=O)OC)CC(=O)OC` [DTPA methyl ester]?
A: MTD (in vivo): 1000 µmol/kg; Av score (average radiation damage score, day 15-20) [1, 5]: 2.50; effectiveness as radioprotectant [1]: not effective

Q: With `O=C(O)CN(CCN(CC(=O)O)CC(=O)O)CCN(CC(=O)O)CC(=O)O` [DTPA, diethylene triamine pentaacetic acid] as the molecule, how does the MTD (in vivo) read?
A: 8000 µmol/kg

Q: What about the “Av score (average radiation damage score, day 15-20)” value [1, 6] of the same molecule?
A: 1.34

Q: What about the effectiveness as radioprotectant [1] of the same molecule?
A: slightly effective; also recorded: moderately effective

Q: Which “BUN compared with the untreated control group” value ([2]; 25 mg/kg doxorubicin into tail vein) does the source give for `COc1cccc2c1C(=O)c1c(O)c3c(c(O)c1C2=O)C[C@@](O)(C(=O)CO)C[C@@H]3O[C@H]1C[C@H](N)[C@H](O)[C@H](C)O1` [Doxorubicin, doxorubicin] here?
A: markedly increased BUN

Q: Which MTD (in vivo) does the source give for `O=C(O)CN(CCN(CC(=O)O)CC(=O)O)CC(=O)O` [EDTA, ethylene-diamine tetraacetic acid] here?
A: 8000 µmol/kg

Q: And the “prevention of doxorubicin-induced BUN increase” value [2]?
A: not

Q: What does the source list for `O=C(O)CNCC(=O)O` [IDA, iminodiacetate]?
A: LD50 (in vivo): 33100 µmol/kg; MTD (in vivo): 17000 µmol/kg; Av Score (average radiation damage score, day 12-24) [1]: 1.19

Q: What does the source list for `CC(=O)N(O)CCCCCNC(=O)CCC(=O)N(O)CCCCCNC(=O)CCC(=O)N(O)CCCCCN` [deferoxamine (DEF), deferoxamine]?
A: effectiveness in reducing tissue injury [3]: some effectiveness in reducing tissue injury; excretion / circulation lifetime [4]: rapid excretion

Q: With “Methoxypolyethlene Glycol Amide with EDTA [MPEDTA]” as the molecule, how does the LD50 (Mice) read?
A: 12.5 mmol/kg

Q: What about the “MTD (maximum tolerated dose)” value (Mice) of the same molecule?
A: 8 mmol/kg

Q: What about the “Av Score (average radiation damage score, day 12-24)” value [1] of the same molecule?
A: 0.24

Q: What about the “Av score (average radiation damage score, day 15-20)” value [1, 6] of the same molecule?
A: 1.50

Q: What about the “Av score (average radiation damage score, day 15-20)” value [1, 5] of the same molecule?
A: 1.67

Q: What about the effectiveness as radioprotectant [1] of the same molecule?
A: extremely effective; also recorded: very effective in reducing or preventing damage from radiation or doxorubicin

Q: What about the “effect on tumoricidal effect of / tumor growth lag produced by doxorubicin” value (B16F1 malignant melanoma) of the same molecule?
A: clearly did not interfere with the tumoricidal effect of doxorubicin; also recorded: lack of effect

Q: And the “prevention of doxorubicin-induced BUN increase” value [2]?
A: completely prevented

Q: Which “Av score (average radiation damage score, day 15-20)” value [1, 6] does the source give for “Methoxypolyethyene Glycol Amide with DTPA. Calcium Sodium Salt [MPDTP]” here?
A: 1.21

Q: What does the source list for “Methoxypolyethylene Glycol Iminodiacetate [MIDA]”?
A: LD50 (Mice): 20.6 mmol/kg; MTD (maximum tolerated dose) (Mice): 8 mmol/kg; Av Score (average radiation damage score, day 12-24) [1]: 0.67; effectiveness as radioprotectant [1]: moderately effective; ANOVA comparison of average scores between groups ([1]; average radiation damage scores, Tables II and III): little difference

Q: With Metyl Ester of MPEDTA [MPEDTAE] as the molecule, how does the “Av score (average radiation damage score, day 15-20)” value [1, 6] read?
A: 0.88

Q: And the “Av score (average radiation damage score, day 15-20)” value [1, 5]?
A: 1.45

Q: What about the effectiveness as radioprotectant [1] of the same molecule?
A: also effective in protection from tissue injury
